Data on 1 compound can be found in US4808572A, “α-Hydroxy thioethers” (Ciba-Geigy Corporation, priority 1985, dated 1989).

For assay [1], the target named is phospholipase C from human thrombocytes. The assay can be described thus: In vitro inhibition of phospholipase C obtained from human thrombocytes. It counts as biochemical. The conditions noted are these: enzyme from human thrombocytes, phosphatidyl-[14C]-inositol, 37°, 5 minutes, pH 6.
Method: Human thrombocytes are obtained from "buffy coats" by fractional centrifugation and then deep frozen.
To ascertain the enzyme activity, enzyme (20-100 μg protein) is incubated at 37° for 5 minutes in 0.025M tris/malate buffer pH 6 with the addition of 0.2 mM CaCl2 and 0.02 mM radioactively labelled substrate, phosphatidyl-[^14 C]-inositol. The reaction is stopped by extraction by shaking with CHCl3 /CH3 OH 2:1 (v/v). In the course of this operation unconsumed substrate is extracted into the organic phase, whilst the reaction product, ^14 C-inositol phosphate, remains in the aqueous phase and can be measured by radiometry of an aliquot.
In order to ascertain the inhibitory action of test substances on phospholipase C, these substances are added in the form of solutions in water, dimethyl sulphoxide (final concentration in the mixture up to 5%, v/v) or ethanol (final concentration in the mixture up to 2.5%, v/v) to the incubation mixture. The strength of action of the test substances is expressed by the IC50, that is to say the concentration that causes a 50% inhibition of the control activity. The IC50 is ascertained on a graph by plotting the percentage inhibition on the ordinate against the log of the concentration (μM) on the abscissa.
The target in assay [2] is phospholipase A2 from human leucocytes. The assay can be described thus: In vitro inhibition of phospholipase A2 obtained from human leucocytes. The format is biochemical. The conditions noted are these: enzyme from human neutrophilic polymorphonuclear leucocytes, 14C-oleic acid labelled E. coli phospholipids, 37°, 1 hour, pH 7.
Method: Human neutrophilic polymorphonuclear leucocytes are isolated from "buffy coats" by multistage fractional sedimentation and are deep-frozen. Phospholipase A2 is extracted from the cell suspension by homogenisation with the addition of ice-cold 0.36N H2 SO4 in 2N NaCl, and the supernatant obtained after centrifugation at 10,000×g is dialysed against sodium acetate buffer pH 4.5.
In order to determine the enzyme activity, enzyme (10-30 μg protein) is incubated at 37° for 1 hour in 0.1M tris/HCl buffer pH 7 with the addition of 1 mM CaCl2 and substrate consisting of phospholipids (2 μM) of Escherichia coli that have been radioactively labelled with ^14 C-oleic acid by means of biosynthesis. The reaction is stopped by the addition of Dole reagent (isopropanol/heptane/1N H2 SO4 40:10:1, v/v) and the ^14 C-oleic acid selectively released by phospholipase A2 is extracted. Substrate also extracted at the same time is completely removed by filtering the extract through a column of silica gel. The ^14 C-oleic acid in the eluate is determined by radiometry.
In order to ascertain the inhibitory action of test substances on phospholipase A2, these substances are added in the form of solutions in water, dimethyl sulphoxide (final concentration in the mixture up to 5% v/v) or ethanol (final concentration in the mixture up to 2.5% v/v) to the incubation mixture. […]

What is called IC50 is the concentration at which inhibition is half-maximal. Consider `CCN(CC)CCCC(C)Nc1c2ccc(Cl)cc2nc2ccc(OC)cc12` (centres unmarked) [mepacrine], for which the IC50 came to 20 µM in assay [1] and 1600 µM in assay [2].
